From patent US20250188080A1, “IMIDAZOLONYLQUINOLINE COMPOUNDS AND THERAPEUTIC USES THEREOF” (Merck Patent GmbH, priority 2019, published 2025)

Tests used:
[1] = test system: CYP1A2, CYP2C8, CYP2C9, CYP2C19, CYP2D6, CYP3A4; experiment: Cytochrome P-450 enzymes (CYP) inhibition, P450-Glo; assay type: in vitro ADME; settings: human
Procedure: In the human organism, drug substances are converted to water-soluble compounds by enzyme systems to facilitate their excretion. These enzyme systems include microsomal cytochrome P-450 enzymes, CYPs for short. The assay is designed to identify whether a compound may be a strong inhibitor for defined CYP isoforms. This involves the use of recombinant CYP isoforms and their reductase obtained by overexpression in insect cells infected with baculovirus. The CYP reaction is performed through […] of the CYP isoform being tested along with a luminometric CYP substrate under NADPH-regenerating conditions. The luminometric P450-Glo™ substrates are derivatives of beetle luciferin ((4S)-4,5-dihydro-2-(6-hydroxybenzothiazolyl)-4-thiazolecarboxylic acid or D-luciferin), a substrate of firefly luciferase from beetles. […] This allows enzyme activity to be quantified rapidly through the luminosity. […] The following commercially available screening systems/assays are used: P450-Glo™ CYP1A2 Screening System (Promega Corporation; V9770); P450-Glo™ CYP2C8 Assay (Promega Corporation; V8782); P450-Glo™ CYP2C9 Screening System (Promega Corporation; V9790); P450-Glo™ CYP2C19 Screening System (Promega Corporation; V9880); P450-Glo™ CYP2D6 Screening System (Promega Corporation; […]); P450-Glo™ CYP3A4 Screening System (Luciferin-PPXE) (Promega Corporation; V9910).

[2] = test system: HBCx-10 patient-derived triple-negative breast cancer xenograft; experiment: HBCx-10 patient-derived xenograft, combination with olaparib; assay type: in vivo, immunodeficient female mice; settings: 100 mg/kg p.o. (3 d on/4 d off)×7 with olaparib 50 mg/kg p.o. qd×49
Procedure: Seventy (70) mice with a subcutaneously growing HBCx-10 tumor (P20.1.4/0) between 62.5 and 196.0 mm^3 were allocated to treatment when their mean and median tumor volume reached 131.16 and 126.00 mm^3 respectively.
Tumors were measured biweekly during the treatment period and once a week during the follow-up period.

[3] = target: T1, Kv11.1 hERG cardiac ion channel (Homo sapiens, UniProt Q12809); experiment: Kv11.1 (hERG) ion channel activity (patch clamp assay); assay type: cell-based; settings: HEK293 transfected with hERG
T1 construct: expressed in transfected cells; host or cells: HEK293 (human embryonic kidney cells), stably transfected
Procedure: Method for the detection and characterisation of test substances which interfere with the Kv11.1 (hERG) channel: Kv11.1 (hERG, human ether a-go-go related gene) is a potassium channel which plays a central role for repolarisation of the cells in the ventricular cardiomyocytes.
The patch-clamp measurement was carried out at room temperature in whole-cell configuration on human embryonic kidney cells (HEK293) which have been transfected in a stable manner with the hERG gene.
The whole-cell configurations were carried out using an automated patch clamp device (Patchliner™, Nanion Technologies, Munich). […]
The cells were clamped to a holding potential of −80 mV. […] DMSO (vehicle control, 0.1% of DMSO) was then applied, and the control current was recorded for 3 min. The test substance was subsequently added twice in the same concentration, and the potassium current was measured for 3.5 min in each case.
If the measurement result of a test substance at an initial concentration of 10 μM was smaller than (−)50% effect (threshold value) (for example (−)60% effect), the test substance was, in order to determine a dose/action relationship, added cumulatively in increasing concentration, where each concentration was measured for 5 min.
The reference substance used was the Kv11.1 (hERG) ion channel blocker quinidine. […] For the calculation, the current was evaluated for the respective final trace. […]

T1 sequence (Q12809 whole entry): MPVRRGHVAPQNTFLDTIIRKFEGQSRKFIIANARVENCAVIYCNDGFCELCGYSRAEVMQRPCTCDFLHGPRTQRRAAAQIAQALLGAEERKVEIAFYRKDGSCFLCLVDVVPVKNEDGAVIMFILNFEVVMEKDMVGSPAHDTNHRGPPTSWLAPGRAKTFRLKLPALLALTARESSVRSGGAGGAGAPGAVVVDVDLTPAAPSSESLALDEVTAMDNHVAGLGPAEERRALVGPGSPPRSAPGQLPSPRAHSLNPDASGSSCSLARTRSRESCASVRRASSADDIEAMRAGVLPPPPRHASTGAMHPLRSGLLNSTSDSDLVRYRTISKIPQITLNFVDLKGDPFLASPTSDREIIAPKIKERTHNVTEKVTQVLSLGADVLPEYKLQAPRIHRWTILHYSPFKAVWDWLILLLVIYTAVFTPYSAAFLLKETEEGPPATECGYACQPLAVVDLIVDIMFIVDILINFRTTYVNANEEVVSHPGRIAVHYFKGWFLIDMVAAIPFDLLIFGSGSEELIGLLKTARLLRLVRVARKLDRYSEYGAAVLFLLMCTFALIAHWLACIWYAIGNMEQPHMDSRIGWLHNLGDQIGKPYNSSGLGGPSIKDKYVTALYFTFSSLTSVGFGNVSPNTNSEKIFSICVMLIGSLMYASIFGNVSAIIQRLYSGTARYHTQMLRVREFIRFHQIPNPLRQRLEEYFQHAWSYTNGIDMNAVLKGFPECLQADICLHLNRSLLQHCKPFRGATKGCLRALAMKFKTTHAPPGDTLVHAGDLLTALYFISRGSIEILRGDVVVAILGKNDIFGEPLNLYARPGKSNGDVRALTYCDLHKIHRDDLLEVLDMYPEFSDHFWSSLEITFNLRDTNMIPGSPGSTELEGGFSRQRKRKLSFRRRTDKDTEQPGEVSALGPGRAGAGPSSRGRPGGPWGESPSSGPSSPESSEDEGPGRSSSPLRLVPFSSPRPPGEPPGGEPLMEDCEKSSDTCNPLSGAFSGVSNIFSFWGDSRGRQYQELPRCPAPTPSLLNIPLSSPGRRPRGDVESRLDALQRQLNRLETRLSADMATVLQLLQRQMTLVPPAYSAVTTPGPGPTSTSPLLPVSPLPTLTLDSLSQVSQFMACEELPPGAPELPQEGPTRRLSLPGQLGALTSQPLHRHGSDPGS

IC50 [1]: ≥ 20 µM
Structure (SMILES): COc1cc2ncc3c(c2cc1-c1cn(C)nc1C)n(-c1c(F)cncc1OC)c(=O)n3C (single isomer, unassigned) [Compound 1, 8-(1,3-Dimethyl-1H-pyrazol-4-yl)-1-(Sa)-(3-fluoro-5-methoxy-pyridin-4-yl)-7-methoxy-3-methyl-1,3-dihydro-imidazo[4,5-c]quinolin-2-one]
Anti-tumor efficacy in combination with olaparib [2]: efficacy of Compound 1 in combination with olaparib was demonstrated
Ki [3]: > 30 µM
